26 molecules from patent publication US6355634B1, “Aromatic compounds” (Bayer Aktiengesellschaft, priority 1990, dated 2002) can be followed below.

One may read the melting point as the temperature, or range, at which the solid turns liquid.

In one data set the test system is Cercospora arachidicola. Kind of data set: Action against Cercospora arachidicola on peanut plants (curative action). Format: in vivo. The conditions noted are these: Mycosphaerella arachidis, 288 h, 160 ppm spray, peanut cv. Tamnut, evaluated 12 days after treatment, read-out: action (leaf area infected with Cercospora arachidicola as a percentage compared with the infected control). As to the method:
Action Against Cercospora arachidicola on Peanut Plants (Curative Action)
Two peanut plants cv. “Tamnut” in the 4-leaf stage are sprayed with a conidia suspension of Cercospora arachidicola (approx. 200,000 conidia/ml) and subsequently incubated at 25-26° C. and under dew-point conditions. After two days, the plants are sprayed thoroughly from all sides with a spray mixture prepared with a wettable powder of the active substance (with 160 ppm of active ingredient). The treated plants are subsequently incubated in a controlled-environment cabinet under the following conditions: 25-27° C. and 80% atmospheric humidity during the day, 20° C. and dew-point conditions during the night; the photoperiod in each case is 16 hours. 12 days after the treatment, the test is evaluated by determining the leaf area infected with Cercospora arachidicola as a percentage compared with the infected control.

In the next data set the test system is Puccinia coronata. Kind of data set: Puccinia coronata (curative action) on oat seedlings. It is filed as in vivo. Particulars: 160 ppm spray, oat cv. Selma, evaluated 9-10 days after infection, read-out: action (leaf area infected with Puccinia coronata as a percentage compared with the infected, untreated control). As to the method:
Puccinia coronata (Curative Action)
30-40 oat seedlings cv. “Selma” (distributed to 2 pots of ø7 cm) are infected with Puccinia coronata by spraying with an aqueous spore suspension (approx. 150,000 uredospores/ml). The test plants are subsequently incubated for 24 hours at 20-24° C. and under dew-point conditions. The oat seedlings are then sprayed thoroughly from all sides with a spray mixture prepared with a wettable powder of the active substance (with 160 ppm of active ingredient). They are cultured further in a controlled-environment cabinet at 19° C. and with a photoperiod of 14 hours. The test is evaluated 9-10 days after infection by determining the leaf area infected with Puccinia coronata as a percentage compared with the infected, untreated control.

The test system of another data set is Erysiphe graminis. The data set is described as follows: Erysiphe graminis (protective action) on wheat seedlings. The conditions noted are these: Blumeria graminis, 168 h, 160 ppm spray, wheat cv. Lita, evaluated 7 days after infection, read-out: action (leaf area covered in Erysiphe graminis as a percentage compared with the infected control). Format: in vivo. As to the method: Erysiphe graminis (Protective Action)
30-40 wheat seedlings cv. “Lita” in the 1-leaf stage (distributed to two pots of ø7 cm) are sprayed thoroughly with a spray mixture prepared with a wettable powder of the active substance (with 160 ppm of active ingredient) and then cultured further in the greenhouse. One day after the treatment, the plants are dusted with conidia of Erysiphe graminis. The test is evaluated 7 days after the infection by determining the size of the leaf area covered in Erysiphe graminis as a percentage compared with the infected control.
Untreated, but infected control plants show a level of infection with Erysiphe of 100%.

A further data set deals with Alternaria brassicae. Kind of data set: Alternaria brassicae (protective action) on cabbage seedlings. It is filed as in vivo. The conditions noted are these: 50 ppm spray, cabbage cv. Vorbote, evaluated 2-5 days after infection, read-out: action (leaf area infected with Alternaria brassicae as a percentage compared with the infected, untreated control). As to the method:
Alternaria brassicae (Protective Action)
4 cabbage seedlings, cv. “Vorbote”, in the 6-leaf stage, distributed to 2 pots, are sprayed thoroughly with a spray mixture prepared with a wettable powder of the active substance (with 50 ppm of active ingredient) and subsequently cultured further in a controlled-environment cabinet at 19° C. and with 16 hours illumination per day. Two days after the treatment, the plants are infected by spraying with an aqueous conidia suspension (approx. 30,000 conidia/ml). The cabbage plants are then incubated at 24-26° C., under dew-point conditions and with a photoperiod of 16 hours. The test is evaluated 2-5 days after the infection by determining the leaf area infected with Alternaria brassicae as a percentage compared with the infected, untreated control.

For the next data set, the system named is Plasmopara viticola. The data set is described as follows: Plasmopara viticola (protective action) on grapevine seedlings. It is filed as in vivo. The conditions noted are these: 144 h, 160 ppm spray, grapevine cv. Riesling x Sylvaner, day 6 after infection, read-out: action (leaf area infected with Plasmopara viticola as a percentage compared with the infected, untreated control). As to the method:
Plasmopara viticola (Protective Action)
2 grapevine seedlings cv. Riesling×Sylvaner, each in the 4-5 leaf stage, are sprayed thoroughly from all sides with a spray mixture prepared with a wettable powder of the active substance (with 160 ppm of active ingredient) and subsequently cultured further in a controlled-environment cabinet at 17° C., 70-80% relative atmospheric humidity and with a photoperiod of 16 hours. After 6 days, the test plants are infected by spraying the undersides of the leaves with zoosporangia of Plasmopara viticola, suspended in distilled water (approx. 300,000 sporangia/ml). The grapevine plants are then incubated as follows: 1 day at 22° C. and under dew-point conditions in the dark and subsequently 4 days in the greenhouse. To induce fructification of Plasmopara viticola, the grapevines are transferred to a controlled-environment cabinet with dew-point conditions at 22° C. on day 5 after the infection.
The tests are carried out in each case on day 6 after the infection by determining the leaf area infected with Plasmopara viticola as a percentage compared with the infected, untreated control.

For a further data set, the system named is Venturia inaequalis. Kind of data set: Venturia inaequalis (curative action) on apple seedlings. Particulars: 50 ppm spray, apple cv. Golden Delicious, evaluated 9-10 days after treatment, read-out: action (leaf area covered in Venturia inaequalis as a percentage compared with the infected control). It is filed as in vivo. As to the method:
Venturia inaequalis (Curative Action)
Two apple seedlings cv. “Golden Delicious” are sprayed with a conidia suspension of Venturia inaequalis and subsequently incubated at 18° C. and under dew-point conditions. After 24 hours, the plants are sprayed thoroughly from all sides with a spray mixture prepared with a wettable powder of the active substance (with 50 ppm of active ingredient). The treated apple seedlings are subsequently cultured further in the greenhouse. 9-10 days after the treatment, the test is evaluated by determining the leaf area covered in Venturia inaequalis as a percentage compared with the infected control.

For `CO/N=C(\C(=O)OC)c1ccccc1CON=C(C)c1ccc(F)c(C(F)(F)F)c1` [Compound 90], the pest or weed control at 160 ppm in the data set with Cercospora arachidicola and with Puccinia coronata was > 75% throughout.

On to `CO/N=C(\C(=O)OC)c1ccccc1CON=C(C)C(=O)c1ccc(F)cc1` [Compound 128], for which the pest or weed control at 160 ppm in the data set on Erysiphe graminis and with Puccinia coronata was > 75% each time.

As to `CO/N=C(\C(=O)OC)c1ccccc1CON=C(C)c1cccc(OC(F)(F)F)c1` [Compound 138], the pest or weed control at 50 ppm in the data set with Alternaria brassicae is > 75%. Moreover, the pest or weed control at 160 ppm in the data set on Cercospora arachidicola, in the data set with Puccinia coronata and with Plasmopara viticola was > 75% throughout.

Take `CO/N=C(\C(=O)OC)c1ccccc1CON=C(c1ccccc1)C1CC1` [Compound 36]: the pest or weed control at 50 ppm in the data set on Venturia inaequalis and in the data set with Alternaria brassicae was > 75% in each case. In addition, the pest or weed control at 160 ppm in the data set on Cercospora arachidicola and in the data set with Plasmopara viticola was > 75% in each case.

As to `CO/N=C(\C(=O)OC)c1ccccc1CON=C(c1ccccc1)C(C)C` [Compound 29], the pest or weed control at 50 ppm in the data set on Venturia inaequalis and in the data set on Alternaria brassicae was > 75% each time. Also, the pest or weed control at 160 ppm in the data set with Erysiphe graminis and in the data set with Plasmopara viticola was > 75% each time.

Take `CO/N=C(\C(=O)OC)c1ccccc1CON=C(C)c1cccc(C(F)(F)F)c1` [Compound 12]: the pest or weed control at 50 ppm in the data set with Venturia inaequalis and in the data set on Alternaria brassicae was > 75% in each case. For the same molecule, the pest or weed control at 160 ppm with Cercospora arachidicola, with Puccinia coronata and with Plasmopara viticola was > 75% throughout.

On to `CO/N=C(\C(=O)OC)c1ccccc1CON=C(C)C(=O)c1cccc(Br)c1` [Compound 129], for which the pest or weed control at 160 ppm with Cercospora arachidicola and in the data set with Plasmopara viticola was > 75% throughout.

As for `CCC(=NOCc1ccccc1/C(=N/OC)C(=O)OC)c1ccccc1` [Compound 28], the pest or weed control at 50 ppm with Venturia inaequalis and with Alternaria brassicae was > 75% each time. Besides, the pest or weed control at 160 ppm in the data set with Plasmopara viticola was > 75%.

For the molecule `CO/N=C(\C(=O)OC)c1ccccc1CON=C(c1ccc2c(c1)OCO2)C1CC1` [Compound 41], the pest or weed control at 160 ppm with Cercospora arachidicola and in the data set with Plasmopara viticola was > 75% throughout.

On to `CO/N=C(\C(=O)OC)c1ccccc1CON=C(C)c1ccc2c(c1)OCO2` [Compound 38], for which the pest or weed control at 50 ppm in the data set on Venturia inaequalis and in the data set on Alternaria brassicae was > 75% in each case. For the same molecule, the pest or weed control at 160 ppm with Cercospora arachidicola and with Plasmopara viticola was > 75% in each case.

Molecule `CO/N=C(\C(=O)OC)c1ccccc1CON=C(C)c1cc(C(F)(F)F)cc(C(F)(F)F)c1` [Compound 33] came in with a melting point of 76 to 78 °C. For the same molecule, the pest or weed control at 50 ppm with Venturia inaequalis was > 75%. Also, the pest or weed control at 50 ppm in the data set on Alternaria brassicae is > 75%. The pest or weed control at 160 ppm with Erysiphe graminis is > 75%. Also, the pest or weed control at 160 ppm in the data set with Cercospora arachidicola is > 75%.

With `CCC(=NOCc1ccccc1/C(=N/OC)C(=O)OC)c1ccc2ccccc2c1` [Compound 120], the pest or weed control at 160 ppm in the data set on Erysiphe graminis and in the data set on Plasmopara viticola was > 75% in each case.

With `CO/N=C(\C(=O)OC)c1ccccc1CON=C(C)c1cccc(Cl)c1` [Compound 135], the pest or weed control at 50 ppm in the data set with Venturia inaequalis is > 75%. In addition, the pest or weed control at 160 ppm in the data set on Erysiphe graminis and in the data set with Plasmopara viticola was > 75% each time.

As to `CO/N=C(\C(=O)OC)c1ccccc1CON=C(C)Cc1ccc(Cl)c(C(F)(F)F)c1` [Compound 133], the pest or weed control at 160 ppm in the data set with Cercospora arachidicola and with Puccinia coronata was > 75% each time.

On to `CO/N=C(\C(=O)OC)c1ccccc1CON=C(c1ccc(C)cc1)C(F)(F)F` [Compound 31], for which the pest or weed control at 50 ppm with Venturia inaequalis and in the data set on Alternaria brassicae was > 75% in each case. Also, the pest or weed control at 160 ppm with Erysiphe graminis and with Plasmopara viticola was > 75% in each case.

Turning to `CO/N=C(\C(=O)OC)c1ccccc1CON=C(C)Cc1cccc(C(F)(F)F)c1` [Compound 24], the pest or weed control at 50 ppm in the data set with Venturia inaequalis and in the data set on Alternaria brassicae was > 75% each time. Moreover, the pest or weed control at 160 ppm with Erysiphe graminis, in the data set on Cercospora arachidicola and with Plasmopara viticola was > 75% in each case.

With `CO/N=C(\C(=O)OC)c1ccccc1CON=C(C)c1cccc(Br)c1` [Compound 22], the pest or weed control at 50 ppm in the data set with Venturia inaequalis and in the data set with Alternaria brassicae was > 75% throughout. Moreover, the pest or weed control at 160 ppm in the data set on Cercospora arachidicola and in the data set on Plasmopara viticola was > 75% each time.

Take `CO/N=C(\C(=O)OC)c1ccccc1CON=C(c1ccc2ccccc2c1)C1CC1` [Compound 150]: the pest or weed control at 50 ppm in the data set with Alternaria brassicae was > 75%. For the same molecule, the pest or weed control at 160 ppm with Plasmopara viticola was > 75%.

`CO/N=C(\C(=O)OC)c1ccccc1CON=C(C)c1ccccn1` [Compound 15] displayed a melting point of 82 to 84 °C. In addition, the pest or weed control at 50 ppm in the data set with Venturia inaequalis is > 75%. In addition, the pest or weed control at 160 ppm with Erysiphe graminis is > 75%.

Take `CO/N=C(\C(=O)OC)c1ccccc1CON=C(c1cccc(C(F)(F)F)c1)C1CC1` [Compound 148]: the pest or weed control at 160 ppm with Cercospora arachidicola and in the data set with Puccinia coronata was > 75% in each case.

For `CO/N=C(\C(=O)OC)c1ccccc1CON=C(c1cccc(Br)c1)C(F)(F)F` [Compound 30], the pest or weed control at 50 ppm in the data set with Venturia inaequalis and with Alternaria brassicae was > 75% throughout. Moreover, the pest or weed control at 160 ppm with Cercospora arachidicola and with Plasmopara viticola was > 75% throughout.

In turn, `CO/N=C(\C(=O)OC)c1ccccc1CON=C(C)c1ccco1` yielded a melting point of 95 to 97 °C.

In turn, `CO/N=C(\C(=O)OC)c1ccccc1CON=C(C)c1ccc(F)cc1` [Compound 34] displayed a melting point of 89 to 90 °C. Besides, in the data set on Venturia inaequalis, the pest or weed control at 50 ppm was > 75%. For the same molecule, the pest or weed control at 50 ppm in the data set on Alternaria brassicae is > 75%. The pest or weed control at 160 ppm in the data set on Erysiphe graminis was > 75%. Further, the pest or weed control at 160 ppm in the data set with Cercospora arachidicola is > 75%.

As to `CO/N=C(\C(=O)OC)c1ccccc1CON=C(C)C(=O)c1cccc(C(F)(F)F)c1` [Compound 131], the pest or weed control at 50 ppm in the data set with Venturia inaequalis was > 75%. The pest or weed control at 160 ppm in the data set on Puccinia coronata was > 75%.

Take `CO/N=C(\C(=O)OC)c1ccccc1CON=C(C)c1ccc(OC(F)F)cc1` [Compound 78]: in the data set on Venturia inaequalis, the pest or weed control at 50 ppm is > 75%. In addition, the pest or weed control at 160 ppm with Puccinia coronata is > 75%.

As to `CO/N=C(\C(=O)OC)c1ccccc1CON=C(C)c1ccc(Cl)cc1` [Compound 17], the pest or weed control at 50 ppm in the data set with Venturia inaequalis and with Alternaria brassicae was > 75% each time. The pest or weed control at 160 ppm in the data set with Cercospora arachidicola, in the data set with Puccinia coronata and in the data set on Plasmopara viticola was > 75% in each case.
